The text below walks through data of patent publication US20180149606A1, “XENON BASED DRUG PROTEIN BINDING ASSAY” (priority 2016, published 2018).

In test [1] the target is T1, albumin (Bos taurus, UniProt P02769). Also noted: other: bovine serum albumin whenever possible, close to 25 degrees Celsius; highest. The following applies: bovine serum albumin whenever possible, close to 25 degrees Celsius; highest affinity site; cited from earlier work.
For test [2], the target named is T1, albumin. Nature of the test: Xenon T2 relaxation measurement of drug binding to albumin (Tables 1 and 2). Also noted: T2: unit not given here. Particulars: 10 μM albumin, 9.4 T. An excerpt:
Hyperpolarized ^129Xe was generated in a rubidium cell hyperpolarizer, and bubbled into the solution.
Hyperpolarized ^129Xe was magnetized in a rubidium cell hyperpolarizer, and bubbled into the solution.
Target sequence in this assay (P02769 25-607): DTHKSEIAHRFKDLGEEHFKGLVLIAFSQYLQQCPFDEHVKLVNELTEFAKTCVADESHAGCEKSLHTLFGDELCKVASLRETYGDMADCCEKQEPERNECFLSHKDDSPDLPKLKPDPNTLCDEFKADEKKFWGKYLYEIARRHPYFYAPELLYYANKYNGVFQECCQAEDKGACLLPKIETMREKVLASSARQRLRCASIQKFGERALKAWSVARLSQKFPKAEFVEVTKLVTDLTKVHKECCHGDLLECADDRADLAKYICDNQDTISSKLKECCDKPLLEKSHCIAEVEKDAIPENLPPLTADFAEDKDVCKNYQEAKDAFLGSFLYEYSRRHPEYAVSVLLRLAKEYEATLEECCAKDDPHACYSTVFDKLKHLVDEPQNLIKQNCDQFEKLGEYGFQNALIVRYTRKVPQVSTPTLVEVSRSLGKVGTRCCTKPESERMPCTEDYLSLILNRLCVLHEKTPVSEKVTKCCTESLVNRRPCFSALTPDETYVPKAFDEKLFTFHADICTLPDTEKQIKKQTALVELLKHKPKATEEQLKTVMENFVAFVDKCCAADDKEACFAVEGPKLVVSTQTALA

In another test the target is bovine serum albumin (Bos taurus, UniProt P02769). Kind of test: Drug titration of xenon T2 in 10 μM fatty acid free bovine serum albumin. It is filed as binding. Particulars: for effect on the xenon T2 of albumin: titration up to 1 mM drug, 9.4 T, 25 degrees Celsius. Here is the method:
The following experiments were performed with fatty acid free bovine serum albumin. It is important to note whether the albumin one uses contains fatty acids both because the fats will alter the binding affinity of a drug and also because they alter the relaxivity of albumin. The drug titrations were performed by preparing a 10 μM solution of bovine serum albumin into which aliquots of high concentration drug solutions were added. Most drugs, as well as all protein solutions, were dissolved in 1×PBS buffer. It is important to keep the pH of the solution constant when studying albumin because that protein has many different pH dependent conformations.
All solutions were made by dissolving the drugs in 1×PBS, with the exception of the tenoxicam solution. The T2 times of solutions containing high concentrations of drugs were measured. […] For the tenoxicam solution, about 400 μL of DMSO was added to a 10 mL solution of 1×PBS.
T2 times were measured using a standard CPMG pulse sequence with 100 ms long echo spacings. All experiments were performed at 9.4 Tesla using hyperpolarized xenon. This hyperpolarized xenon was prepared using a homebuilt spin exchange optical pumping based polarizer. The protein solution was attached to the polarizer's flow system and the pressurized to 60 psi. Xenon was bubbled into the protein solution at a rate of about 0.1 standard liters per minute. The gas mixture used contained 2% xenon, with the rest of the gases being helium and nitrogen. All experiments were performed at 25 degrees Celsius.
All protein solutions required the addition of an antifoaming agent in order to prevent the xenon from forcing the sample out of the NMR tube. […] 1-octanol was used as the antifoaming agent in this experiment. The concentration of 1-octanol used was 5 μL of alcohol per 10 mL of solution.

Chain of bovine serum albumin (P02769 25-607): as above

`Cn1c(=O)c2c(ncn2C)n(C)c1=O` [Caffeine, caffeine]: at albumin [1], the “Highest Binding Affinity log10(Ka)” value is given as 4.3. Further, the “Xenon relaxation time, T2” value at albumin [2] (16 μM caffeine) is reported as 0.54 ± 0.04 s; at albumin [2] (43 μM caffeine) it was 0.47 ± 0.04 s; at albumin [2] (56 μM caffeine), 0.63 ± 0.04 s; at albumin [2] (100 μM caffeine), 0.69 ± 0.03 s; on albumin [2] (500 μM caffeine) it was 0.51 ± 0.03 s; on albumin [2] (5000 μM caffeine), 0.67 ± 0.04 s. For the same molecule, the “Xenon relaxation time, T2” value on albumin [2] (80000 μM caffeine) worked out at 1.07 ± 0.03 s.

For `Cc1onc(-c2c(F)cccc2Cl)c1C(=O)N[C@@H]1C(=O)N2[C@@H]1SC(C)(C)[C@@H]2C(=O)O` [Flucloxacillin, flucloxacillin], the “Highest Binding Affinity log10(Ka)” value at albumin [1] is 4.6. The T2 on albumin [2] (70 μM flucloxacillin) amounted to 0.91 ± 0.04; at albumin [2] (200 μM flucloxacillin), 0.99 ± 0.04; on albumin [2] (250 μM flucloxacillin) it was 1.53 ± 0.05; on albumin [2] (450 μM flucloxacillin), 0.97 ± 0.03; on albumin [2] (2000 μM flucloxacillin), 0.73 ± 0.04. Besides, the “effect on the xenon T2 of albumin, repeated titration” value on bovine serum albumin (higher concentrations of drug (beyond 1 mM), 10 μM BSA) was “no effect”. Further, on bovine serum albumin (10 μM BSA), the “effect on the xenon T2 of albumin” value is recorded as “much weaker effect”.

`CCCCCCCC/C=C\CCCCCCCC(=O)[O-].[Na+]` [Sodium Oleate, sodium oleate]: the “Highest Binding Affinity log10(Ka)” value at albumin [1] was 8.0. Further, at bovine serum albumin (three times as much sodium oleate as albumin, 10 μM albumin), the “increase of xenon T2” value amounted to 3 s. Further, the “effect on the xenon T2 of albumin” value at bovine serum albumin (10 μM BSA) is listed as “increased”.

For the molecule `CN1C(C(=O)Nc2ccccn2)=C(O)c2sccc2S1(=O)=O` [Tenoxicam, tenoxicam], the “Highest Binding Affinity log10(Ka)” value on albumin [1] was 5.4.
